Assay results: patent publication US20110104159A1, “COMPOSITIONS AND METHODS FOR TREATING, CONTROLLING, REDUCING, AMELIORATING, OR PREVENTING ALLERGY” (priority 2006, published 2011)

Columns and labels:
EoL-1 cells = experiment: EoL-1 cell apoptosis (annexin V/PI flow cytometry); type: cell-based, human
Procedure: EoL-1 cells were grown in RPMI-1640+L-glutamine medium (containing 10% FBS) and kept at 37° C. in a 5% CO2 humidified atmosphere. Before each experiment, the cells were stabilized in serum-depleted media (0.1% FBS) for 24 h before treatments.

CXCR4 receptor = CXCR4 receptor surface expression in human eosinophils (FACS), transactivation marker; type: cell-based; conditions: 24 h
Procedure: FACS was performed to measure cell surface expression of annexin I and CXCR4 as indicators of glucocorticoid-mediated transactivation. Human eosinophils were double-stained with a red dye-conjugated secondary antibody to trace changes in the expression of CXCR4 or I, and a green dye-conjugated annexin V to exclude apoptotic cells from the analysis. The cells were counted and transferred to a 24-well plate (10^6 cells/well) and serum-starved (0.1% FBS) for 24 h.
At the end of the incubation, the cells were harvested and each sample was divided into two tubes to run parallel tests for annexin I and CXCR4 surface expression. After rinsing all samples with a HBSS solution containing 1% BSA, the cells were incubated for 45 min on a shaker with anti-annexin I or anti-CXCR4 antibodies (1:200) on ice; the negative control was incubated with an isotype-specific control antibody.
The cells were then washed twice with HBSS/BSA buffer before exposure to the Alexa Fluor® 568-conjugated secondary antibody. The excess of unbound antibody was washed away, and all samples were incubated for 15 min in the presence of annexin V-Fluos. […] Electronic gates were set on annexin V-negative cells and CXCR4 or annexin I-positive cells. Data from 10,000 cells/sample were analyzed using dedicated software (Becton, Dickinson and Company). The % of CXCR4 or annexin I positive cells was calculated.

[1] = tested on: cultured human ocular cells; conditions: cultured human ocular cells [13, 29]; cited from earlier work
[2] = tested on: primary human conjunctival epithelial cells (HConEpiC); experiment: IL-4 and TNF-α-induced cytokine release in HConEpiC (Luminex); type: cell-based; conditions: 24 h
Procedure: Primary human conjunctival epithelial cells (HConEpiC) were seeded in two 24-well plates in EpiLife medium+1% Human Corneal Growth Supplement (HCGS; contains bovine pituitary extract, bovine insulin, hydrocortisone, bovine transferrin and mouse epidermal growth factor) at 2×10^4 cells/well. When the cells were confluent (4-5 days after seeding), they were incubated in EpiLife GF medium without glucocorticoids (EpiLife basic medium supplemented with 50 μg/ml bovine pituitary extract, 5 μg/ml bovine insulin and 5 ng/ml mouse epidermal growth factor) for 18 h. […] Culture medium was collected. Cytokine analysis was performed on the culture medium using 2 separate cytokine/chemokine Luminex kits (Kit 1: G-CSF, GM-CSF, IL-6, IL-8, IP-10, MCP-1, RANTES; Kit 2: eotaxin-3, CTACK). ICAM-1 expression was determined in cell lysates using a Luminex kit.
Median fluorescence intensity (MFI) was used to obtain the concentration of each cytokine and ICAM-1 in pg/ml based on the standard curve of each cytokine assayed by Luminex using the StatLIA software. ICAM-1 expression was expressed as pg/mg protein. All data were expressed as mean±SEM. Statistical analysis was performed using a two-way ANOVA-Contrast test with Factor 1 being drug and Factor 2 being dose (JMP 8 software, SAS Institute, Cary, N.C.). P<0.05 was considered statistically significant. Data were analyzed either directly or after Box-Cox transformations (9, 10).

[3] = tested on: peripheral human blood eosinophils; experiment: Spontaneous eosinophil apoptosis (annexin V/PI flow cytometry)
Procedure: To assess glucocorticoid-induced apoptosis, cells were double-stained with annexin V-Fluos and propidium iodide (PI). Annexin V-Fluos was used according to the manufacturer's instructions.
The suspension was incubated at room temperature for 10 min and analyzed in the BD FACS Canto II flow cytometry system (Becton, Dickinson and Company, New Jersey, USA). Eosinophils and EoL-1 cells were gated on the basis of their forward and side light scatter, with cell debris excluded from analysis. Apoptotic cells were defined as annexin V^+/PI^− cells. A two-way dot plot was prepared to verify the percentage of apoptotic cells. Annexin V^−/PI^− cells were used as control and annexin V^+/PI^+ cells were considered necrotic.
All data are expressed as mean±S.E.M. for the number of experiments indicated. Statistical comparisons were made by ANOVA and post-hoc Newman-Keuls test with differences of P<0.05 considered significant.

[4] = tested on: rabbit paracentesis model; experiment: Rabbit paracentesis model of ocular inflammation (overall conclusion); type: in vivo; conditions: 0.1%, 0.5% and 1% topical; preliminary conclusion
From the text: Inflammatory processes are multidimensional in origin, and are characterized by complex cellular and molecular events involving numerous components all of which have not been identified. Prostaglandins are among these mediators and play an important role in certain forms of ocular inflammation. Paracentesis of the anterior chamber in the rabbit eye induces inflammatory reaction due to the disruption of the blood-aqueous barrier (“BAB”), which is mediated, at least in part, by prostaglandin E2 [References 1-3 below]. Intraocular or topical administration of PGE2 disrupts the BAB. [Reference 4, below] The treatment schedule adopted in this study was similar to the clinical NSAIDs (Ocufen) treatment schedule used by surgeons for patients before cataract surgery.
Each rabbit was placed in a restraint device and tagged with the alphanumeric code. The formulations were instilled (50 μl) into the conjunctival sac of both eyes 180, 120, 90 and 30 min before the first paracentesis; then 15, 30, 90 min after the first paracentesis. To perform the first paracentesis the animals were anaesthetized by intravenous injection of 5 mg/kg Zoletil® (Virbac; 2.5 mg/kg tiletamine HCl and 2.5 mg/kg zolazepam HCl) and one drop of local anesthetic (Novesina®, Novartis) was administered to the eye. […]

Cc1ccc2c(NC[C@](O)(CC(C)(C)c3cc(F)cc4c3OCC4)C(F)(F)F)cccc2n1 [BOL-303242-X, (R)-1,1,1-Trifluoro-4-(5-fluoro-2,3-dihydrobenzofuran-7-yl)-4-methyl-2-{[(2-methyl-5-quinolyl)amino]methyl}pentan-2-ol]
Efficacy, enhancement of spontaneous EoL-1 cell apoptosis (EoL-1 cells; 0.1% FBS 96 h, compound during the last 72 h): 61%
Percentage of annexin-V+/PI+ (necrotic) EoL-1 cells (EoL-1 cells; 72 h, 5000 nM, n=12, p>0.05 vs without compound (12±5%)): 7±4%
EC50 (EoL-1 cells; Homo sapiens, EOL1, 0.1% FBS 96 h, compound during the last 72 h, read-out: EC50, enhancement of spontaneous EoL-1 cell apoptosis): 315 nM
CXCR4 receptor surface expression (CXCR4 receptor; 10 000 nM, significantly lower than 1000 nM dexamethasone): partially increased this receptor on the cell surface
CXCR4 receptor surface expression (CXCR4 receptor; up to 5000 nM, vs vehicle-treated or control eosinophils): did not change CXCR4 receptor expression
Blocking inflammatory cytokine release [1]: equally potent in blocking inflammatory cytokine release
Eotaxin-3 level induced by IL-4 plus TNF-α ([2]; 100 nM): significant elevation of eotaxin-3
Eotaxin-3 level induced by IL-4 plus TNF-α ([2]; 10, 30, 300 and 1000 nM): no effect
IL-8 level induced by IL-4 plus TNF-α ([2]; 10-1000 nM): no effect
IP-10 level induced by IL-4 plus TNF-α ([2]; 30, 100, 300 and 1000 nM): significantly inhibited
IL-6 level induced by IL-4 plus TNF-α ([2]; 300 and 1000 nM): significantly reduced
CTACK level induced by IL-4 plus TNF-α ([2]; all doses 10-1000 nM): significant reduction
G-CSF level induced by IL-4 plus TNF-α ([2]; all doses 10-1000 nM): significantly elevated
GM-CSF level induced by IL-4 plus TNF-α ([2]; all doses 10-1000 nM): significant reduction
MCP-1 level induced by IL-4 plus TNF-α ([2]; all doses 10-1000 nM): significant reduction
RANTES level induced by IL-4 plus TNF-α ([2]; all doses 10-1000 nM): significant reduction
Eosinophil apoptosis after 24 h exposure ([3]; 24 h, 0.1% FBS, 100 and 1000 nM, data not shown): lower but significant apoptosis
Percentage of annexin-V+/PI+ (necrotic) peripheral blood eosinophils ([3]; 48 h, 5000 nM, mean±SEM, n=12, p>0.05 vs without compound (34±10%)): 25±9%
Efficacy, enhancement of spontaneous eosinophil apoptosis ([3]; 48 h, 0.1% FBS, no GM-CSF/IL-5, 1-5000 nM): 90%
EC50 ([3]; read-out: EC50, enhancement of spontaneous eosinophil apoptosis, 48 h, 0.1% FBS, no GM-CSF/IL-5, 1-5000 nM): 456 nM
Activity in the rabbit paracentesis model [4]: active in this model
